Test results published in patent publication US20080226596A1, “Therapeutic compositions and methods useful in treating hepatitis” (priority 2006, published 2008).

Key:
[1] = test system: HEY cells; assay: HEY ovarian cancer cell growth, MTT assay; format: cell-based, human; settings: 100 μg/ml, day 6
Procedure: (§1) NIH3T3 (Yi, et al., Blood 85, 87 (1995)), WM9 (Forsberg, et al., Proc. Nat. Acad Sci. USA 90, 393 (1993)), DU145 (Mickey, et al., Cancer Res. 37, 4049 (1977)), LoVo (Drewinko, et al., Cancer Res. 36, 467 (1976)), HEY (Buick, et al., Cancer Res. 45, 3668 (1985)), U251 (Yoshida, et al., Cancer 50, 410 (1982)), A549 (Giard, et al., J. Natl. Cancer Inst. 51, 1417 (1973)) and SK-N-SH (Helson, et al., Cancer Res. 35, 2594 (1975)) cell lines have been described and were cultured in RPMI 1640 supplemented with 10% fetal calf serum (FCS). For measurement of sodium stibogluconate effects on cell growth in vitro, cells were cultured in the absence (−) or presence (+) of various amounts of sodium stibogluconate for 6 days with viable cells quantified by MTT assays (Mosmann, J. Immunol. Methods 65, 55 (1983)). Percentages of growth inhibition by sodium stibogluconate were calculated (.+−.x

[2] = test system: DU145R cells; assay: DU145R cell growth, MTT assay; format: cell-based, human; settings: day 6, compared with parental DU145
Procedure: DU145 cells were cultured in the presence of sodium stibogluconate (100 µg/ml) in 48 well plates for 3 weeks. Cells from a well containing a single colony were transferred to flasks, cultured in sodium stibogluconate-free medium for 3 weeks and used as DU145R cells for further characterization. Growth of DU145R cells in the absence or presence of sodium stibogluconate in day 6 culture was determined by MTT assays. cDNAs of the coding region of PRLs were derived by RT-PCR from DU145 and DU145R cells and sequenced using primers described below.

[3] = test system: NB4 cells; assay: NB4 Annexin V/propidium iodide assay; format: cell-based, human; settings: 250 μg/ml, 6 days
Procedure: Annexin V staining of exposed membrane phospholipid phosphatidylserine (PS) was done using the Annexin V assay kit (Pharmingen, San Diego, Calif.). […] Cells were then washed in PBS twice and stained in binding buffer (10 mM Hepes, pH 7.4; 140 mM NaCl; 2.5 mM CaCl2) containing Annexin V-FITC and propidium iodide for 15 min. The reaction was stopped by adding 10 volumes of binding buffer and analyzed by FACS (Becton Dickinson Facsvantage).

[4] = target: T1, intracellular Flag-PRL-1 (Homo sapiens, UniProt Q93096); assay: Immunocomplex PTPase assay, Flag-PRL-1 NIH3T3 transfectants; format: cell-based, mouse; settings: 5 min treatment
T1 construct: expressed in transfected cells; host or cells: NIH3T3 (A51) or WM9 (A61) transfectants, pBabepuro vector
T1 sequence (Q93096 whole entry): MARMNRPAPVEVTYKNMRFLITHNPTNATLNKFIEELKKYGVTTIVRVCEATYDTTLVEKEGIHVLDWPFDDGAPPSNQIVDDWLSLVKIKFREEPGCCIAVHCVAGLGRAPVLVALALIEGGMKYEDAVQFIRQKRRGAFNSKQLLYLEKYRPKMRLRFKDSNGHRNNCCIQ
Procedure: (§2) Immunocomplex PTPase assays were performed to assess the effects of sodium stibogluconate on intracellular PTPases. Cells were untreated or treated with sodium stibogluconate for 5 minutes, washed with fresh medium and then lysed in cold lysis buffer (50 mM Tris, pH 7.4; 150 mM NaCl; 1% NP40; 2 mM PMSF; 20, g/ml of Aprotinin). The lysates were incubated with an anti-Flag antibody in immunoprecipitation assays. The immunocomplexes were collected with protein G sepharose beads (Pharmacia) and washed in cold lysis buffer for 4 times. […] 100 µL of malachite green solution (UBI) was added to each reaction prior to measurement of OD660 to quantify the amounts of free phosphate cleaved by the PTPases from the peptide substrate (Pathak et al., J. Imumol. 167, 3391 (2001)). The remaining 10% contents of individual samples were analyzed by SDS-PAGE/Western blotting to quantify the relative amounts of the phosphatase proteins. […]
(§3) The effects of sodium stibogluconate on intracellular PTPases were assessed using NIH3T3 or WM9 transfectants. […]

[5] = test system: Jak2/Stat5 tyrosine phosphorylation; assay: IL-3-induced Jak2/Stat5 tyrosine phosphorylation in Baf3 cells; format: cell-based, murine
Procedure: (§4) For induction of cellular protein phosphorylation by sodium stibogluconate or pervanadate, Baf3 cells were incubated in 0.1% FCS-RPMI 1640 medium at 37° C. for 16 hours. The cells were then washed twice in RPMI 1640 medium and incubated with sodium stibogluconate or pervanandate (0.1 mM) for various times prior to termination by lysing cells in cold lysis buffer (50 mM Tris, pH 7.4; 150 mM NaCl; 0.2 mM Na3VO4; 20 mm NaF; 1% Nonidet P-40; 2 mM PMSF; 20 µg/ml of Aprotinin and 1 mM of sodium molybdic acid). To determine the effect of sodium stibogluconate or potassium antimonyl tartrate on IL-3-induced Jak/Stat phosphorylation, Baf3 cells were deprived of the growth factor for 16 hours in 0.1% FCS RPMI 1640 medium and then incubated with or without sodium stibogluconate or potassium antimonyl tartrate for 10 minutes. IL-3 was next added to the cell suspension and incubated for various times. The Cells were then harvested and lysed in cold lysis buffer at 4° C. for 45 minutes. Total cell lysates (TCL) were separated in SDS-PAGE gels, blotted onto nitrocellulose membrane (Schleicher & Schuell), probed with specific antibodies and detected using an enhanced chemiluminescence kit (ECL, Amersham, Arlington Heights, Ill.).

[6] = target: T2, intracellular Flag-PRL-3 (Homo sapiens, UniProt O75365); assay: Immunocomplex PTPase assay, Flag-PRL-3 NIH3T3 transfectants; format: cell-based, mouse; settings: 5 min treatment
T2 construct: expressed in transfected cells; host or cells: NIH3T3 transfectants, pBabepuro vector
T2 sequence (O75365 whole entry): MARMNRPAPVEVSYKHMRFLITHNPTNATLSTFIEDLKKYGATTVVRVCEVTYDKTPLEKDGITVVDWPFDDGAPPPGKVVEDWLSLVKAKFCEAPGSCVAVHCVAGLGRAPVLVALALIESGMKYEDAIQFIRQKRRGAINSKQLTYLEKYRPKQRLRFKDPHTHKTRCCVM
Procedure: as §2, §3

[7] = test system: WM9 transfectants; assay: Growth of WM9 transfectants, MTT assay; format: cell-based, human; settings: 50 or 100 μg/ml, 6 days
Procedure: as §1
The effects of sodium stibogluconate on intracellular PTPases were assessed using NIH3T3 or WM9 transfectants. NIH3T3 or WM9 cells were transfected with the pBabepuro vector (V) or pBabepuro expression constructs of Flag-tagged PRLs using Lipofectamine (BRL) following the manufacturer's procedures. […]

[8] = test system: Baf3 cells; assay: Cellular protein tyrosine phosphorylation in Baf3 cells (Western blot); format: cell-based, murine; settings: IL-3-deprived Baf3 cells
Procedure: as §4

Compound: O.O.O.O.O.O.O.O.O.O=C([O-])[C@@H]1[O][Sb]2([O-])([O][Sb]34([OH])[O][C@H]([C@H](O)CO)[C@H]([O]3)[C@H](C(=O)[O-])[O]4)[O][C@H]([C@H](O)CO)[C@@H]1[O]2.[Na+].[Na+].[Na+] [sodium stibogluconate]
- killing of HEY cells [1]: near-complete cell killing
- growth of DU145R cells with sodium stibogluconate [2]: growth resistance to sodium stibogluconate
- Annexin V staining of NB4 cells [3]: stained positive by Annexin V
- PTPase activity of Flag-PRL-1 immunocomplexes from treated cells [4]: little PTPase activities
- phosphotyrosine levels of Jak2 and Stat5 relative to cells without drug ([5]; IL-3 stimulated, drug 10 minutes before, densitometry): about twice
- Jak2/Stat5 tyrosine phosphorylation by drug alone ([5]; no IL-3, 37 C 16 hours): failed to induce Jak2/Stat5 tyrosine phosphorylation
- PTPase activity of Flag-PRL-3 immunocomplexes from treated cells [6]: lack of PTPase activity
- growth of R86 cells [7]: only modest growth inhibition
- cellular protein tyrosine phosphorylation [8]: induced protein tyrosine phosphorylation
